Measurements as given in US20250361230A1, “LATS Inhibitors and Uses Thereof” (The USA, as Represented by the Secretary, Dept. of Heath …, priority 2022, published 2025).
Like-named read-outs stand apart in the source and are kept apart here.

How the values were obtained:
Format in all cases: biochemical
[1] = target: T1, LATS1 (Homo sapiens, UniProt O95835); test: RBC HotSpot kinase assay (33P-ATP, P81 filter-binding), LATS1
T1 sequence (O95835 1-1130): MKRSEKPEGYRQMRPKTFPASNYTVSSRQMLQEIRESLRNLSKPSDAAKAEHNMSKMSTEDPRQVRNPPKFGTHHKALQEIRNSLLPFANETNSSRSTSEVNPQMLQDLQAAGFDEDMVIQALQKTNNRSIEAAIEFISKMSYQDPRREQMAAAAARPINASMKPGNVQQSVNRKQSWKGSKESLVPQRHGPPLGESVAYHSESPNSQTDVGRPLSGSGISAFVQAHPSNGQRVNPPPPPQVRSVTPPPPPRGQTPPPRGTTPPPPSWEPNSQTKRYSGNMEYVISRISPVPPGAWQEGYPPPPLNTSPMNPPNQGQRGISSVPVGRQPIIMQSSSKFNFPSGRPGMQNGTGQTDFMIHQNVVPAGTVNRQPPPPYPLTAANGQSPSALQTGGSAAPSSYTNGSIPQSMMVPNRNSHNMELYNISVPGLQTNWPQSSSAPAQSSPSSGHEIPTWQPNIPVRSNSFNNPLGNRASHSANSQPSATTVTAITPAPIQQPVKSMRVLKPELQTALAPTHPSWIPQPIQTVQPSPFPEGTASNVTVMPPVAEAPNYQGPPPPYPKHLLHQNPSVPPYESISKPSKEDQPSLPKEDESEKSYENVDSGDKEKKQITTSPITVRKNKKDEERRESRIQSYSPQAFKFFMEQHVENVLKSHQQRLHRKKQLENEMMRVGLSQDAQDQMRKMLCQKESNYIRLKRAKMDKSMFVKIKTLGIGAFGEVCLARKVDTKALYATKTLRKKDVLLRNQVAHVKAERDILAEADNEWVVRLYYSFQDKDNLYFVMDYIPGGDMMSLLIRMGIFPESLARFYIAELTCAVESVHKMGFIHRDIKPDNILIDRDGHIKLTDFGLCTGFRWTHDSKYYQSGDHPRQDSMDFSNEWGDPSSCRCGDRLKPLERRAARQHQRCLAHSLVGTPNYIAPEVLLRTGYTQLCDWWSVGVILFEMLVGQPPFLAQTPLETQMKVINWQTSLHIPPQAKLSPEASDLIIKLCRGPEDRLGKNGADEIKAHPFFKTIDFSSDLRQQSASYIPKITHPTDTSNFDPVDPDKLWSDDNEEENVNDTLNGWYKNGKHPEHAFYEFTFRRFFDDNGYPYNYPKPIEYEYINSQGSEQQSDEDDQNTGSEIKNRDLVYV
Method in brief: (§1)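 Hepes pH 7.5/MgCl2/EGTA/Brij35/BSA/Na3VO4/DTT buffer, cofactors per kinase; cpd acoustically dispensed, 20 min preinc RT; start w/ 33P-ATP, 2 h RT; P81 filter readout; 10-pt singlet IC50.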

[2] = target: T2, LATS2 (Homo sapiens, UniProt Q9NRM7); test: RBC HotSpot kinase assay (33P-ATP, P81 filter-binding), LATS2
T2 sequence (Q9NRM7 1-1088): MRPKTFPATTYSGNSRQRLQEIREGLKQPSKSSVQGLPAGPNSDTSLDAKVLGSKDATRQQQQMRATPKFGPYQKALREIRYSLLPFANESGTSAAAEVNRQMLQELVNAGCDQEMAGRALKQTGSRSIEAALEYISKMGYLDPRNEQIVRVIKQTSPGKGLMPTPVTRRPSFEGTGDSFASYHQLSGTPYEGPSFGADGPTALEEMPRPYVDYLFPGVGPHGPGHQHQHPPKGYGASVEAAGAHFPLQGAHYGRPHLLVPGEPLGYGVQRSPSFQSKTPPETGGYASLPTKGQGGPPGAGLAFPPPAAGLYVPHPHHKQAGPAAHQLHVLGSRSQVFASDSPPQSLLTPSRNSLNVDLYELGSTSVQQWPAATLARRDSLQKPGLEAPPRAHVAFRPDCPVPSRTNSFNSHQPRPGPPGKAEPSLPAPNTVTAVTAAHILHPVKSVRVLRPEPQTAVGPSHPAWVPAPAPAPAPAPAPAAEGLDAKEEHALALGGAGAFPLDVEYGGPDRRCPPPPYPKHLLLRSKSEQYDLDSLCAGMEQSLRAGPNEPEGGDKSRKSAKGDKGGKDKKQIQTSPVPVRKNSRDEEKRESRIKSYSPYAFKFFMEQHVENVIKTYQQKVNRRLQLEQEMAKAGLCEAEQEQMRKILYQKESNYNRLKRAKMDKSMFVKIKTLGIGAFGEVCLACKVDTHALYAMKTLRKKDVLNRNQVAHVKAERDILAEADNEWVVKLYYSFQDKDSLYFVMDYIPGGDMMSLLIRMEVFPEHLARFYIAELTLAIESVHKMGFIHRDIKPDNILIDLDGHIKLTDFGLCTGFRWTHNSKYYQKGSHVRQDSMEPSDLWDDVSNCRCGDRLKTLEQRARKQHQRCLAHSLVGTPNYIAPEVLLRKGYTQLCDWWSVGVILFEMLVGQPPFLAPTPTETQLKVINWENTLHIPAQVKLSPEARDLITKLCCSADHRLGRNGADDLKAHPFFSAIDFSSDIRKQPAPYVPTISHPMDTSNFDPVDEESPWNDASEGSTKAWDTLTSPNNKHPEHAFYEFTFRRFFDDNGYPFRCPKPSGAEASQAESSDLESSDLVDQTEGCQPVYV
Method in brief: as §1

[3] = target: AKT (Homo sapiens, UniProt P31749); test: RBC HotSpot kinase assay (33P-ATP, P81 filter-binding), AKT
Method in brief: as §1

[4] = Table 28, biochemical kinase assay, read-out: LATS1 IC50
[5] = Table 28, biochemical kinase assay, read-out: LATS2 IC50
[6] = Table 28, biochemical kinase assay, read-out: AKT IC50

AKT, sequence (P31749 whole entry): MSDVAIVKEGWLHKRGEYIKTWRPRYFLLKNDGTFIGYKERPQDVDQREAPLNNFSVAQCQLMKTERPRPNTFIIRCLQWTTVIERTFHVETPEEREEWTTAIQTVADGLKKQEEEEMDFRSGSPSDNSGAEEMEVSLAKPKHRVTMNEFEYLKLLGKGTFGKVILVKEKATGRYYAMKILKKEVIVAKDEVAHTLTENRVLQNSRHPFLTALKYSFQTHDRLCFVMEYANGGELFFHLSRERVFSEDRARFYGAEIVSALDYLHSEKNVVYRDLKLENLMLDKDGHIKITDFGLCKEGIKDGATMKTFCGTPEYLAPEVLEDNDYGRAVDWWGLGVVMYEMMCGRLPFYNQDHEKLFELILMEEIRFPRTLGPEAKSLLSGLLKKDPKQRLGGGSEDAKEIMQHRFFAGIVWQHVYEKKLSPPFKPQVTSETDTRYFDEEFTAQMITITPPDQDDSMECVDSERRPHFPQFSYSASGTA

Row | Structure (SMILES) | IC50 [1, 4] [nM] | IC50 [2, 5] [nM] | IC50 [3, 6] [nM] | IC50 [1] [nM] | IC50 [2] [nM] | IC50 [3] [nM]
1 | COc1cc(-c2ccnc3[nH]ccc23)ccc1C1CCNCC1 [Compound 180, 4-(3-methoxy-4-(piperidin-4-yl)phenyl)-1H-pyrrolo[2,3-b]pyridine] | 69 | 84 | 2570 |  |  | 
2 | Fc1cc(C2CCNCC2)ccc1-c1ccnc2[nH]ccc12 [Compound 181, 4-(2-fluoro-4-(piperidin-4-yl)phenyl)-1H-pyrrolo[2,3-b]pyridine] | 68 | 87 | 3360 |  |  | 
3 | FC(F)(F)c1cc(C2CCNCC2)ccc1-c1ccnc2[nH]ccc12 [Compound 182, 4-(4-(piperidin-4-yl)-2-(trifluoromethyl)phenyl)-1H-pyrrolo[2,3-b]pyridine] | 1570 | 1770 | > 10000 |  |  | 
4 | CC1CNCCC1c1ccc(-c2ccnc3[nH]ccc23)cc1 (stereo not drawn) [Compound 185, 4-(4-(3-methylpiperidin-4-yl)phenyl)-1H-pyrrolo[2,3-b]pyridine] | 70 | 57 | 2110 |  |  | 
5 | Fc1cnc2[nH]ccc2c1-c1ccc(C2CCNCC2)cc1 [Compound 186, 5-fluoro-4-(4-(piperidin-4-yl)phenyl)-1H-pyrrolo[2,3-b]pyridine] | 36 | 68 | 2050 |  |  | 
6 | c1cc(-c2ccc(C3CCNCC3)cc2)c2cc[nH]c2n1 [Compound 188, 4-(4-(piperidin-4-yl)phenyl)-1H-pyrrolo[2,3-b]pyridine] | 70 | 75 | 2200 |  |  | 
7 | Fc1c[nH]c2nccc(-c3ccc(C4(C(F)(F)F)CCNCC4)cc3)c12 [Compound 189, 3-fluoro-4-(4-(4-(trifluoromethyl)piperidin-4-yl)phenyl)-1H-pyrrolo[2,3-b]pyridine] | 11 | 14 | 18 |  |  | 
8 | Cc1nnc(C2(c3ccc(-c4ccnc5[nH]cc(F)c45)cc3)CCNCC2)o1 [Compound 190, 2-(4-(4-(3-fluoro-1H-pyrrolo[2,3-b]pyridin-4-yl)phenyl)piperidin-4-yl)-5-methyl-1,3,4-oxadiazole] | 20 | 17 | 18 |  |  | 
9 | Fc1c[nH]c2nccc(-c3ccc(C4(c5nnco5)CCNCC4)cc3)c12 [Compound 191, 2-(4-(4-(3-fluoro-1H-pyrrolo[2,3-b]pyridin-4-yl)phenyl)piperidin-4-yl)-1,3,4-oxadiazole] | 57 | 43 | 200 |  |  | 
10 | Cc1cnc(C2(c3ccc(-c4ccnc5[nH]cc(F)c45)cc3)CCNCC2)o1 [Compound 192, 2-(4-(4-(3-fluoro-1H-pyrrolo[2,3-b]pyridin-4-yl)phenyl)piperidin-4-yl)-5-methyloxazole] | 29 | 20 | 25 |  |  | 
11 | COC(=O)C1(c2ccc(-c3ccnc4[nH]cc(F)c34)cc2)CCN(C)CC1 [Compound 193, Methyl 4-(4-(3-fluoro-1H-pyrrolo[2,3-b]pyridin-4-yl)phenyl)-1-methylpiperidine-4-carboxylate] |  |  |  | 53 | 26 | 128
12 | O=C(O)C1(c2ccc(-c3ccnc4[nH]cc(F)c34)cc2)CCNCC1 [Compound 194, 4-(4-(3-fluoro-1H-pyrrolo[2,3-b]pyridin-4-yl)phenyl)piperidine-4-carboxylic acid] | > 10000 | > 10000 | > 10000 |  |  | 
13 | Cc1nnc(C2(c3ccc(-c4ccnc5[nH]cc(F)c45)cc3)CCN(C(=O)OC(C)(C)C)CC2)o1 [Compound 195, tert-butyl 4-(4-(3-fluoro-1H-pyrrolo[2,3-b]pyridin-4-yl)phenyl)-4-(5-methyl-1,3,4-oxadiazol-2-yl)piperidine-1-carboxylate] | 5790 | 3520 | > 10000 |  |  | 
14 | CC(C)(C)OC(=O)N1CCC(c2ccc(-c3ccnc4[nH]cc(F)c34)cc2)(c2nnco2)CC1 [Compound 196, tert-butyl 4-(4-(3-fluoro-1H-pyrrolo[2,3-b]pyridin-4-yl)phenyl)-4-(1,3,4-oxadiazol-2-yl)piperidine-1-carboxylate] | > 10000 | > 10000 | > 10000 |  |  | 
15 | Fc1c[nH]c2nccc(-c3ccc(C4(C(F)(F)F)CCNCC4)cc3Cl)c12 [Compound 197, 4-(2-chloro-4-(4-(trifluoromethyl)piperidin-4-yl)phenyl)-3-fluoro-1H-pyrrolo[2,3-b]pyridine] | 424 | 195 | 85 |  |  | 
16 | COC(=O)C1(c2ccc(-c3ccnc4[nH]cc(F)c34)cc2Cl)CCNCC1 [Compound 198, methyl 4-(2-chloro-4-(3-fluoro-1H-pyrrolo[2,3-b]pyridin-4-yl)phenyl)piperidine-4-carboxylate] | 7.4 | 10 | 124 |  |  | 
17 | CCC1(c2ccc(-c3ccnc4[nH]cc(F)c34)cc2Cl)CCNCC1 [Compound 199, 4-(3-chloro-4-(4-ethylpiperidin-4-yl)phenyl)-3-fluoro-1H-pyrrolo[2,3-b]pyridine] | 38 | 34 | 463 |  |  | 
18 | CC1(c2ccc(-c3ccnc4[nH]cc(F)c34)cc2Cl)CCNCC1 [Compound 200, 4-(3-chloro-4-(4-methylpiperidin-4-yl)phenyl)-3-fluoro-1H-pyrrolo[2,3-b]pyridine] | 34 | 20 | 12 |  |  | 
19 | CC(C)c1cc(-c2ccnc3[nH]cc(-c4ccccc4)c23)ccc1CN [Compound 202, (2-isopropyl-4-(3-phenyl-1H-pyrrolo[2,3-b]pyridin-4-yl)phenyl)methanamine] | 17 | 7 | 743 |  |  | 
20 | CC(C)(C)Nc1cc(-c2ccnc3[nH]ccc23)ccc1CN [Compound 203, 2-(aminomethyl)-N-(tert-butyl)-5-(1H-pyrrolo[2,3-b]pyridin-4-yl)aniline] | 70.3 | 135 | 1380 |  |  | 
21 | Fc1ccccc1CNCc1ccc(-c2ccnc3[nH]ccc23)cc1 [Compound 204, N-(4-(1H-pyrrolo[2,3-b]pyridin-4-yl)benzyl)-1-(2-fluorophenyl)methanamine] | 15.9 | 33.1 | 1430 |  |  | 
22 | CC(C)(N)c1ccc(-c2ccnc3[nH]ccc23)cc1Cl [Compound 205, 2-(2-chloro-4-(1H-pyrrolo[2,3-b]pyridin-4-yl)phenyl)propan-2-amine] | 9.5 | 31.8 | 437 |  |  | 
